Laboratory results published in patent US9101613B2, “Methods for treating neurological disease” (Neurim Pharmaceuticals (1991) Ltd., priority 2006, dated 2015).

Tests used:
PC12 cells = assay: Glutamate-induced loss of cell viability in PC12 cells (MTT); type: cell-based; details: 1 uM, without glutamate
Method: For the cell viability assays, 24 h after seeding in 96-well plates, the cultures were pretreated with N-[2-(5-methoxy-indol-3-yl)-ethyl]-comanilamide (100 pm, 1 nM, 10 nM, 100 nM, 1 uM and 10 uM) or melatonin (1 uM) for 0 h before exposure to 4 mM glutamate. After 24 h incubation, cellular viability was evaluated by MTT assay.
PC12 cell viability was determined by the conventional 3-(4,5-dimethylthiazol-2-yl)-2,5-diphenyltetrazolium bromide (MTT) assay. PC12 cells were treated with MTT solution (0.5 mg/ml) and were then incubated at 37° C. for 4 hrs. The medium was removed and 150 μl DMSO/well was added to dissolve formazan. The absorbance at 570 nm was recorded using an enzyme-linked immunosorbent assay reader and the percentage of cell growth inhibition was calculated as follows: Cell viability (%)=A570 (treatment)/A570 (control)×100.

3T3-L1 adipocytes = assay: 2-[3H]-deoxy-d-glucose uptake in FFA-treated 3T3-L1 adipocyte model; type: cell-based
Method: Adipocytes were glucose-starved for 1 h in Hepes-salt buffer containing 2% FFA-free BSA. FFA (free fatty acids) were then added to the cells at the indicated concentrations (300 μM) for the indicated times (3 h). 10 min before the end of the FFA treatment, the cells were stimulated with insulin (20 nM)/melatonin (10 nM)/test compounds (10 nM) at 37° C. 2-[^3H]-deoxy-d-glucose at 1 μCi/mL and 0.1 mM unlabeled 2-deoxyglucose in KRP-HEPES buffer was added and cells were incubated for 10 min at room temperature. Non-specific glucose uptake was measured by parallel incubations in the presence of 10 μM cytochalasin B, which blocks transporter-mediated glucose uptake, and was subtracted from total uptake in each assay. Cells were then washed three times with ice-cold phosphate buffered saline (PBS) and solubilized in 1M NaOH for 20 minutes. The sample was then counted using a scintillation counter. 2-[^3H]-deoxy-d-glucose uptake was assayed in triplicates for each condition in at least 3 independent experiments. 2-[^3H]-deoxy-d-glucose uptake (counts per minute-cpm) are presented as mean+SE of triplicates in a representative experiment or results of three independent experiments. ANOVA test was used with significance of P<0.05 (Table 7).

MT-3 receptor = molecular target: T1, MT-3 receptor (Mesocricetus auratus, UniProt A0ABM2YAB8); assay: 125I-melatonin binding in hamster brain membranes, MT-3
T1 construct: from tissue; host or cells: hamster brain membranes
T1 sequence (A0ABM2YAB8 1-231): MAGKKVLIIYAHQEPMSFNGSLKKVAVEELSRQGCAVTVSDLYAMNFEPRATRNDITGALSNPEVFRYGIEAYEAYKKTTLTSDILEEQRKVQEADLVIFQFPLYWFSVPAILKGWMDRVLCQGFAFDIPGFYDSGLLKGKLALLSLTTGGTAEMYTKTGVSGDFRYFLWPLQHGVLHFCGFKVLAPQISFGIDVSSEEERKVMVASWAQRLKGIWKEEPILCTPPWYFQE
Method: Aliquots of suspended membranes of human recombinant CHP-K1 (Chinese hamster ovary) cells stably expressing human melatonin-1 or melatonin-2 (MT-1 or MT-2) receptors or of hamster brain (MT-3) were incubated at 25° C. with 0.05 nM ^125I-melatonin in buffer (25 mM HEPES, pH 7.4, 5 mM MgCl2, 1 mM CaCl2, 0.5% BSA) or with 0.1 nM for MT-3 alone or in the presence of 1 nM, 10 nM, 0.1 μM, 1 μM and 10 μM of test substances N-[2-(5-methoxy-indol-3-yl)-ethyl]-commenamide, N-[2-(5-methoxy-indol-3-yl)-ethyl]-comanilamide, N-[2-(5-methoxy-indol-3-yl)-ethyl]-coumalylamide, N-[2-(5-methoxy-indol-3-yl)-ethyl]-2-methoxy-commenamide, N-[2-(5-methoxy-indol-3-yl)-ethyl]-chelidonamide, O-[2-(5-methoxy-indol-3-yl)-ethyl]-comenic ester, N-[2-(5-methoxy-indol-3-yl)-ethyl]-2-Pyrone-6-carboxamide and N-[2-(2-bromo-5-methoxy-indol-3-yl)-ethyl]-coumalylamide for 3 hours for MT-1, 4 hours for MT-2 and 30 min for MT-3. The binding reaction was terminated and the membranes were washed with 4 ml of ice-cold HEPES buffer by vacuum filtration. Membranes were then collected, and the filters containing the bound ^125I-melatonin were assayed for the amount of radioactivity in a […]. Non-specific binding was evaluated using a reaction with 1 μM 6-chloromelatonin (MT-1 and MT-2) or 30 μM melatonin (MT-3).

CD1 mice = assay: Motimeter assay (motor activity and rearing); type: in vivo; details: 100 mg/kg i.p.
Method: Mice were starved for 16 hrs before treatment. Male CD1 mice, weighing 25-30 g, were treated intraperitoneally with melatonin, N-[2-(5-methoxy-indol-3-yl)-ethyl]-comanilamide or N-[2-(5-methoxy-indol-3-yl)-ethyl]-commenamide in a dose of 100 mg/kg. The horizontal (i.e. locomotion) and vertical (i.e. rearing) movements were measured for 5 minutes two times, 30 and 60 min after treatment. Eight mice/group were used. The 4-channel activity meter is a square-shaped frame containing transparent infra-red permeable acrylic cages. The frames feature two pairs of light-beam strips for measuring horizontal movements, and two pairs for measuring rearing. Each strip is equipped with 16 infra-red sensors.

COc1ccc2[nH]cc(CCNC(C)=O)c2c1 [Melatonin, N-acetyl-5-methoxy-tryptamine, reference compound]
effect on cell viability without glutamate (PC12 cells): had no effect on the cell viability | effect on glucose transport in FFA-treated adipocytes (3T3-L1 adipocytes; FFA-impaired insulin signaling): improved glucose transport | 2-[3H]-deoxy-d-glucose uptake (cpm) (3T3-L1 adipocytes; Insulin 20 nM + FFA 300 μM (3 h) + substance 10 nM): 1489 cpm | IC50 (MT-3 receptor; 0.1 nM 125I-melatonin, 30 min, read-out: MT-3 receptor binding IC50): 47 nM | Ki (MT-3 receptor; 0.1 nM 125I-melatonin, 30 min, read-out: MT-3 receptor binding KI): 46 nM | inhibition at 10 µM (MT-3 receptor; read-out: MT-3 receptor binding % inhibition by 10 μM): 100% | effect on motor activity and rearing (CD1 mice; 30-35 min and 60-65 min after treatment): did not change significantly the motor activity and rearing | motor activity (horizontal movement) changes (%) 30 min (CD1 mice; 30 min, vs vehicle): −26.5% | motor activity (horizontal movement) 30 min Means ± SE (CD1 mice; 30 min after treatment, 5 min measurement): 316.1 ± 45.5 | motor activity (horizontal movement) changes (%) 60 min (CD1 mice; 60 min, vs vehicle): −19.0% | motor activity (horizontal movement) 60 min Means ± SE (CD1 mice; 60 min after treatment, 5 min measurement): 256.1 ± 27.3
